Measurements taken from ChEMBL document CHEMBL1129018, “Asymmetric synthesis of cis-()-(2R4S)-4-(phosphonomethyl)-2-piperidinecarboxylic acid, a potent NMDA receptor antagonist” (Bioorg Med Chem Lett, 1996).

Test: Compound was tested for binding activity against N-methyl-D-aspartic acid(NMDA) receptor in rat brain crude synaptic membranes
Assay type: cell membranes

Compound	IC50
O=C(O)[C@@H]1C[C@H](CP(=O)(O)O)CCN1 (stereo in doubt; form 2) [SELFOTEL]	29 nM
O=C(O)[C@@H]1C[C@H](CP(=O)(O)O)CCN1 (stereo in doubt; form 1) [SELFOTEL]	69 nM
O=C(O)[C@@H]1C[C@H](CP(=O)(O)O)CCN1 (stereo in doubt) [SELFOTEL]	10000 nM
